Reference: patent publication US20230287021A1, “COMPOUNDS, COMPOSITIONS AND METHODS FOR STABILIZING TRANSTHYRETIN AND INHIBITING TRANSTHYRETIN MISFOLDING” (Protego Biopharma, Inc., priority 2020, published 2023)
Structures can show the parent of a compound that is named as a salt.

How the values were obtained:
[1] = In vitro rat plasma stability assay, formation of tafamidis; format: in vitro ADME; settings: 37° C., 2 µM test compound
Outline: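 Compound at 2 µM incubated in rat plasma at 37 °C, sampled at 0, 10, 30, 60, 120 min or 0, 60, 120, 180, 240 min. Protein precipitated, supernatant analyzed by LC-MS/MS, and percentage formation of tafamidis calculated per time point.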

[2] = In vitro rat liver S9 stability assay, formation of tafamidis; format: in vitro ADME; settings: rat liver S9, 37° C., 1 µM test compound
Experimental: The test compound was added to liver S9 and incubated at 37° C. in a water bath at a concentration of 1 µM. At each time point (0, 5, 10, 20, 30 and 60 min), stop solution (tolbutamide plus labetalol) was added to precipitate protein and mixed thoroughly. After centrifugation, an aliquot of supernatant was analyzed by LC-MS/MS. The percentage of formation of active agent was calculated at each time point.

Compound	Formation of tafamidis at 120 min [1]	Formation of tafamidis at 60 min [2]
O=C(OCCN1CCOCC1)c1ccc2nc(-c3cc(Cl)cc(Cl)c3)oc2c1 [Compound 80]	B (B is ≥25 to <50%)	D (D is ≥75%)
CN1CCCC1COC(=O)c1ccc2nc(-c3cc(Cl)cc(Cl)c3)oc2c1 (centres unmarked) [Compound 61, (1-methylpyrrolidin-2-yl)methyl 2-(3,5-dichlorophenyl)benzo [d] oxazole-6-carboxylate]	D (D is ≥75%)	C (C is ≥50 to <75%)
O=C(OCCn1ccnc1)c1ccc2nc(-c3cc(Cl)cc(Cl)c3)oc2c1 [Compound 99]	B (B is ≥25 to <50%)	D (D is ≥75%)
O=C(OCCN1CCCCC1)c1ccc2nc(-c3cc(Cl)cc(Cl)c3)oc2c1 [Compound 34, 2-(piperidin-1-yl)ethyl 2-(3,5-dichlorophenyl)benzo[d] oxazole-6-carboxylate]	A (A is <25%)	C (C is ≥50 to <75%)
O=C(OC1CCNC1)c1ccc2nc(-c3cc(Cl)cc(Cl)c3)oc2c1 (centres unmarked) [Compound 17, pyrrolidin-3-yl 2-(3,5-dichlorophenyl)benzo[d]oxazole-6-carboxylate hydrochloride]	A (A is <25%)	A (A is <25%)
O=C(OC1CC2CCC1CN2)c1ccc2nc(-c3cc(Cl)cc(Cl)c3)oc2c1 (centres unmarked) [Compound 27, 2-azabicyclo[2.2.2]octan-5-yl 2-(3,5-dichlorophenyl)benzo [d]oxazole-6-carboxylate hydrochloride]	A (A is <25%)	A (A is <25%)
CC(C)(C)N1CCC(OC(=O)c2ccc3nc(-c4cc(Cl)cc(Cl)c4)oc3c2)C1 (centres unmarked) [Compound 92]	B (B is ≥25 to <50%)	A (A is <25%)
CN1CC2CCC1CC2OC(=O)c1ccc2nc(-c3cc(Cl)cc(Cl)c3)oc2c1 (centres unmarked) [Compound 32, 2-methyl-2-azabicyclo[2.2.2]octan-5-yl 2-(3,5-dichlorophenyl) benzo [d]oxazole-6-carboxylate]	A (A is <25%)	A (A is <25%)
O=C(OCC1CCCO1)c1ccc2nc(-c3cc(Cl)cc(Cl)c3)oc2c1 (centres unmarked) [Compound 86]	D (D is ≥75%)	D (D is ≥75%)
CC(C)(C)OC(=O)N1CC2CCC1CC2OC(=O)c1ccc2nc(-c3cc(Cl)cc(Cl)c3)oc2c1 (centres unmarked) [Compound 26, 2-(tert-butoxycarbonyl)-2-azabicyclo[2.2.2]octan-5-yl 2-(3,5-dichlorophenyl) benzo [d] oxazole-6-carboxylate]	A (A is <25%)	A (A is <25%)
Cn1ccnc1COC(=O)c1ccc2nc(-c3cc(Cl)cc(Cl)c3)oc2c1 [Compound 98]	C (C is ≥50 to <75%)	D (D is ≥75%)
O=C(OCc1ncc[nH]1)c1ccc2nc(-c3cc(Cl)cc(Cl)c3)oc2c1 [Compound 89]	C (C is ≥50 to <75%)	D (D is ≥75%)

Next, values leading:

Formation of tafamidis at 120 min [1]	Formation of tafamidis at 60 min [2]	Compound
D (D is ≥75%)	D (D is ≥75%)	CN1CC(OC(=O)c2ccc3nc(-c4cc(Cl)cc(Cl)c4)oc3c2)C(F)(F)C1 (centres unmarked) [Compound 175]
A (A is <25%)	B (B is ≥25 to <50%)	CC1CCC(OC(=O)c2ccc3nc(-c4cc(Cl)cc(Cl)c4)oc3c2)C1 (centres unmarked) [Compound 185]
C (C is ≥50 to <75%)	C (C is ≥50 to <75%)	CC(CCn1ccnc1)OC(=O)c1ccc2nc(-c3cc(Cl)cc(Cl)c3)oc2c1 (centres unmarked) [Compound 178, 4-(1H-imidazol-1-yl)butan-2-yl 2-(3,5-dichlorophenyl)-benzo [d] oxazole-6-carboxylate]
B (B is ≥25 to <50%)	D (D is ≥75%)	O=C(OCc1ccccn1)c1ccc2nc(-c3cc(Cl)cc(Cl)c3)oc2c1 [Compound 103]
A (A is <25%)	A (A is <25%)	CCNC(=O)c1ccc2nc(-c3cc(Cl)cc(Cl)c3)oc2c1 [Compound 183]
D (D is ≥75%)	D (D is ≥75%)	Cn1ccnc1CCOC(=O)c1ccc2nc(-c3cc(Cl)cc(Cl)c3)oc2c1 [Compound 177]
B (B is ≥25 to <50%)	A (A is <25%)	O=C(OC1CCN2CCCC12)c1ccc2nc(-c3cc(Cl)cc(Cl)c3)oc2c1 (centres unmarked) [Compound 180, Hexahydro-1H-pyrrolizin-1-yl 2-(3,5-dichlorophenyl)benzo[d]oxazole-6-carboxylate]
C (C is ≥50 to <75%)	D (D is ≥75%)	N#CCN1CCC(OC(=O)c2ccc3nc(-c4cc(Cl)cc(Cl)c4)oc3c2)C1 (centres unmarked) [Compound 176]
B (B is ≥25 to <50%)	C (C is ≥50 to <75%)	N#CCCN1CCC(OC(=O)c2ccc3nc(-c4cc(Cl)cc(Cl)c4)oc3c2)C1 (centres unmarked) [Compound 179]
B (B is ≥25 to <50%)	A (A is <25%)	O=C(OC1CCc2nccn2C1)c1ccc2nc(-c3cc(Cl)cc(Cl)c3)oc2c1 (centres unmarked) [Compound 157, 5,6,7,8-tetrahydroimidazo[1,2-a]pyridin-6-yl 2-(3,5-dichlorophenyl)benzo[d]oxazole-6-carboxylate hydrochloride]
